These results are taken from BindingDB's records for doi:10.1016/j.bmcl.2012.09.081 (2012).

Molecules are shown by their SMILES.

The nature of the assay: Inhibition of tobacco hornworm V-ATPase c subunit.

The IC50 is the midpoint of a concentration-inhibition curve. Lower therefore signals higher potency. Turning to `CNC(=O)O[C@@H](CC(C)C)c1nc([C@H]2OC(=O)/C(C)=C/C/C(C)=C/[C@@H](OC(=O)c3ccc(C4(C(F)(F)F)N=N4)cc3)[C@@H](C)\C=C(C)/C=C(C)\C=C\[C@@H](OC(=O)c3ccc(C4(C(F)(F)F)N=N4)cc3)[C@H](C)[C@H](OC)/C(C)=C/C=C/[C@@H]2C)cs1`, the IC50 came to 0.6 µM.
